Experimental data taken from article PMC6755732, “Structural, Biochemical, and In Vivo Characterization of MtrR-Mediated Resistance to Innate Antimicrobials by the Human Pathogen Neisseria gonorrhoeae” (Journal of Bacteriology, 2019).
Several values for one entry are separate records, joined by “and”; a condition that tells them apart may be missing. Identical values can stand only once. Like-named read-outs stand apart in the source and are kept apart here. Marks after values point to notes of the source that are not given here.

What was measured:
MtrR-mtrCDE promoter = biological target: T1, MtrR-mtrCDE promoter (Neisseria gonorrhoeae, UniProt P39897); assay type: biochemical; details: for Fold increase in Kd: versus no bile salt
T1 construct: nearly all 210 residues of each protomer observed, with the exception of residues 1 through 7; hexahistidine tag (thrombin-cleavable) (cleaved yes); made in house
Method: Thus, to rule out any effect of alkaline pH on MtrR-DNA interactions, we buffered the CAPS used in the FP assay to pH 8.0 before testing its effect on DNA binding.
Fluorescence polarization-based DNA binding experiments were performed with a Panvera Beacon 2000 fluorescence polarization system (Invitrogen) utilizing 5′-fluorescein-labeled DNA. Polarization (P) of such 5′-labeled DNA increases as a function of protein binding, and equilibrium dissociation constants are determined by curve fitting the values of millipolarization (P × 10^−3) units against the protein concentration. To determine the effects of various ligands on MtrR-DNA binding, 1 nM 5′-fluoresceinated oligodeoxynucleotide duplexes containing the mtrC operator site in 1 ml binding buffer (20 mM Tris HCl [pH 8.0], 100 mM NaCl, and 2.5% glycerol) were titrated against increasing concentrations of purified MtrR in the presence or absence of the indicated concentrations of bile salt, and the resulting changes in polarization were measured. All the samples were excited at 490 nm, and their polarized emissions were measured at 530 nm. All the data were plotted using Kaleidagraph (Synergy Software) and Prism (GraphPad Software), and the resulting plots were fitted to the following equation: P = {(Pbound − Pfree)[protein]/(KD + [protein])} + Pfree, where P is the polarization measured at a given protein concentration, Pfree is the initial polarization of the free ligand, Pbound is the maximum polarization of specifically bound ligand, KD is the equilibrium dissociation constant, and [protein] is the protein concentration. Nonlinear least-squares analysis was used to determine Pbound, and Kd. The reported binding constants are the average values from at least three independent experimental measurements.

[1] = test system: mtrCp-lacZ in JF1 (FA19 ΔmtrR); assay type: cell-based, Neisseria gonorrhoeae
Description: (§1) To determine if sublethal concentrations of bile salts could relieve MtrR-mediated repression of mtrC (and, by inference, the mtrCDE operon), a translational fusion of the promoter region of mtrC to lacZ was used. This fusion system was made in the wild-type (FA19) background ([41]) and cloned into mtrR deletion mutant strain JF1. Using the mtrCp-lacZ fusion, the β-galactosidase activity of the strains grown in the presence or absence of the bile salt chenodeoxycholate, taurodeoxycholate, or glycocholate was measured. The β-galactosidase levels were determined from strains grown overnight on GC agar supplemented with the bile salt at concentrations 4-fold below their specific MICs to ensure that the concentration of each bile salt was in the same biological range (the bile salt concentrations are listed in Table 2).
N. gonorrhoeae strains FA19 (wild type) and JF1 (FA19 ΔmtrR) containing a translational mtrCp-lacZ fusion with the proAB locus were used to assess the ability of bile salts to induce mtrC expression; the construction of these strains has been described previously ([41]). The MIC of bile salts for each strain used in the β-galactosidase assay was determined using a 2-fold agar dilution method ([32]). […]

[2] = biological target: T2, MtrR(R176E)-mtrCDE operator DNA (Neisseria gonorrhoeae, UniProt P39897, R176E); assay: Electrophoretic mobility shift assay, induction of MtrR(R176E); assay type: biochemical; details: EMSA
T2 construct: hexahistidine tag with TEV protease site (N, cleaved yes); made in house; host or cells: Rosetta Gami B(DE3) pLysS cells (Novagen)
Description: (§2) We hypothesized that the bile salts chenodeoxycholate and taurodeoxycholate occupied the binding pocket in which the CAPS electron density was observed. In our crystal structure, residues R176′ and W136 appear to be potentially important for H bonding and π stacking, respectively, with the ligand (see Fig. S4). Therefore, we generated and purified the single-site mutant MtrR proteins, MtrR(R176A), MtrR(R176E), and MtrR(W136L), to determine the importance of these residues for ligand binding (see the supplemental material) ([40]). First, we determined the capabilities of these single mutants to bind DNA with our FP-based assay. All the mutants were capable of binding the mtrCDE target sequence, with dissociation constants in the nanomolar range and all within 5-fold of the wild-type protein (see Fig. S7A). […] At higher concentrations (5 to 10 mM), taurodeoxycholate induced all three mutants. […]
(§3) Complementary oligodeoxynucleotides containing the MtrR binding site from the mtrC promoter (top strand, 5′-[…]-3′; an unusual pseudo-direct repeat is underlined) were annealed by heating an equimolar mixture of the top and bottom strands at 95°C for 5 min, followed by slow cooling to room temperature. […] The gels were stained with ethidium bromide and visualized and analyzed with an Alpha Innotech gel documentation instrument. The intensities of free DNA were measured with ImageJII ([61], [62]).

MtrR(W136L) = biological target: T3, MtrR(W136L) (Neisseria gonorrhoeae, UniProt P39897, W136L); assay: Isothermal titration calorimetry, MtrR(W136L) with bile salts; assay type: binding; details: ITC
T3 construct: hexahistidine tag with TEV protease site (N, cleaved yes); made in house; host or cells: Rosetta Gami B(DE3) pLysS cells (Novagen)
Method: (§4) Purified MtrR was dialyzed extensively against buffer containing 20 mM Tris [pH 8.0], 200 mM NaCl, 10% glycerol, and 1 mM TCEP overnight at 4°C. The stock solutions and the necessary dilutions of the bile salts were prepared using this dialysis buffer. Titrations with 20 μM MtrR in the cell and 250 μM ligand in the syringe were performed using a VP-ITC microcalorimeter (Microcal Inc.). All measurements were conducted at 25°C with a stirring speed of 200 rpm. After subtraction of germane blank data, the titration data were analyzed using the program ORIGIN 5.0.
(§5) Protein purification for Isothermal Titration Calorimetry experiments and mutant […]
A codon optimized gene of MtrR was synthesized by GenScript and cloned into the pMCSG7 vector in- frame with the N-terminal Hexa- histidine tag and tobacco etch virus (TEV) protease cleavage site. This construct was used as the template for site- directed mutagenesis and to generate wild- type data in supplemental f igures 5-6 and Isothermal Titration Calorimetry data. This protein was overexpressed and purified as described in the “Materials and Methods” of the document, except the he xa -histidine tag MtrR was cleaved by TEV protease following NiNTA affinity chromatography. […]

[3] = biological target: T4, MtrR(R176A)-mtrCDE operator DNA (Neisseria gonorrhoeae, UniProt P39897, R176A); assay: Electrophoretic mobility shift assay, induction of MtrR(R176A); assay type: biochemical; details: EMSA
T4 construct: hexahistidine tag with TEV protease site (N, cleaved yes); made in house; host or cells: Rosetta Gami B(DE3) pLysS cells (Novagen)
Description: as §2, §3

MtrR = biological target: T5, MtrR (Neisseria gonorrhoeae, UniProt P39897); assay: Isothermal titration calorimetry, wild-type MtrR with bile salts; assay type: binding; details: ITC; for Stoichiometry N, WT MtrR: bile salt per MtrR
T5 construct: A codon optimized gene of MtrR was synthesized by GenScript and cloned into the; hexahistidine tag with TEV protease site (N, cleaved yes); made in house
Method: as §4, §5
(§6) A codon optimized gene of MtrR was synthesized by GenScript and cloned into the pMCSG7 vector in- frame with the N-terminal Hexa- histidine tag and tobacco etch virus (TEV) protease cleavage site. This construct was used as the template for site- directed mutagenesis and to generate wild- type data in supplemental f igures 5-6 and Isothermal Titration Calorimetry data. This protein was overexpressed and purified as described in the “Materials and Methods” of the document, except the he xa -histidine tag MtrR was cleaved by TEV protease following NiNTA affinity chromatography. Cleaved MtrR was purified from tagged MtrR and cleaved hexa- histidine tag by Ni- NTA aff inity chromatography and then further purified by size exclusion chromatography (S200).

MtrR-DNA complex = biological target: T6, MtrR-DNA complex (Neisseria gonorrhoeae, UniProt P39897); assay type: biochemical; details: EMSA, wild-type MtrR, mtrC promoter oligoduplex
T6 construct: nearly all 210 residues of each protomer observed, with the exception of residues 1 through 7; hexahistidine tag (thrombin-cleavable) (cleaved yes); made in house
Method: To test the hypothesis that these bile salts directly bind to MtrR and potentially derepress gene expression by interfering with the DNA binding activity of MtrR, MtrR-mtrC promoter interactions were tested in the presence and absence of different concentrations of several bile salts. […] It is important to note that this is a competition assay that, due to its experimental design, requires the use of 3 μM DNA and 4 to 10 μM MtrR dimer. Consequently, this means that ∼99.9% of all DNA is MtrR bound.
Complementary oligodeoxynucleotides containing the MtrR binding site from the mtrC promoter (top strand, 5′-[sequence]-3′; an unusual pseudo-direct repeat is underlined) were annealed by heating an equimolar mixture of the top and bottom strands at 95°C for 5 min, followed by slow cooling to room temperature. Binding reactions were carried out in 20-μl volumes of binding buffer (20 mM Tris [pH 8.0], 200 mM NaCl, 10% glycerol, and 1 mM TCEP) containing 1 μg oligoduplex, 1 μg poly(dI-dC), and 4 to 10 μg MtrR. After a 20-minute incubation at room temperature, the preformed complex was incubated with or without various concentrations of selected bile salts at room temperature for an additional 10 min. […] The gels were stained with ethidium bromide and visualized and analyzed with an Alpha Innotech gel documentation instrument. The intensities of free DNA were measured with ImageJII ([61], [62]).

MtrR(R176E) = biological target: T7, MtrR(R176E) (Neisseria gonorrhoeae, UniProt P39897, R176E); assay: Isothermal titration calorimetry, MtrR(R176E) with bile salts; assay type: binding; details: ITC
T7 construct: hexahistidine tag with TEV protease site (N, cleaved yes); made in house; host or cells: Rosetta Gami B(DE3) pLysS cells (Novagen)
Method: as §4, §5, §6
Site-directed mutagenesis
To introduce the mutations W 136L, R176A, and R176E, we performed DpnI mediated site-directed mutagenesis. Complementary oligonucleotides containing the desired mutations were obtained from IDT. PCR reactions containing two complementary primers, template DNA, Pfu DNA polymerase buffer, dNTP, and Pfu DNA polymerase were incubated at 95 °C for 30 seconds followed by 18 cycles of 95 °C for […], 55 °C for one minute, and 68 °C for 11 minutes. After cooling the reactions to 4 °C, 10 units of Dpn1 (NEB) was added to each 50 µl reaction and incubated at 37 °C for 3 hours.
The resulting plasmids were used to transform DH5α (Thermo Fisher) cells for plasmid prep. After checking the sequences to ensure the mutations had been incorporated, these plasmids were overexpressed in Rosetta Gami B(DE3) pLysS cells (Novagen)

WT MtrR = biological target: T8, WT MtrR (Neisseria gonorrhoeae, UniProt P39897); assay: ITC ligand competition, WT MtrR presaturated with one bile salt and titrated with the second; assay type: binding; details: WT MtrR (20 μM) preincubated with 20 μM taurodeoxycholate overnight at 4°C
T8 construct: A codon optimized gene of MtrR was synthesized by GenScript and cloned into the; hexahistidine tag with TEV protease site (N, cleaved yes); made in house
Method: (A to D) Isothermal titration calorimetry thermograms and resulting binding isotherms for binding reactions between MtrR(R176E) and chenodeoxycholate (A) and taurodeoxycholate (B), as well as between MtrR(W136L) and chenodeoxycholate (C) and taurodeoxycholate (D). (E and F) Isothermal titration calorimetry thermograms and resulting binding isotherms for ligand competition assays. (E) WT MtrR (20 μM) was incubated with 20 μM taurodeoxycholate overnight at 4°C; chenodeoxycholate was titrated into MtrR-TDCA. (F) WT MtrR (20 μM) was incubated with 20 μM chenodeoxycholate overnight at 4°C; taurodeoxycholate was titrated into MtrR-CDCA.
This finding supports the idea that these ligands occupy different binding sites on MtrR and that the binding of taurodeoxycholate occludes, either directly or allosterically, the binding site of chenodeoxycholate. With our current data, we cannot determine the exact binding location of taurodeoxycholate. […]
Purified MtrR was dialyzed extensively against buffer containing 20 mM Tris [pH 8.0], 200 mM NaCl, 10% glycerol, and 1 mM TCEP overnight at 4°C. […] After subtraction of germane blank data, the titration data were analyzed using the program ORIGIN 5.0.

[4] = biological target: T9, MtrR(W136L)-mtrCDE operator DNA (Neisseria gonorrhoeae, UniProt P39897, W136L); assay: Electrophoretic mobility shift assay, induction of MtrR(W136L); assay type: biochemical; details: EMSA
T9 construct: hexahistidine tag with TEV protease site (N, cleaved yes); made in house; host or cells: Rosetta Gami B(DE3) pLysS cells (Novagen)
Description: as §2, §3

[5] = test system: mtrCp-lacZ in FA19 (wild type); assay: β-Galactosidase assay of mtrCp-lacZ fusion, strain FA19; assay type: cell-based, Neisseria gonorrhoeae
Description: as §1
N. gonorrhoeae strains FA19 (wild type) and JF1 (FA19 ΔmtrR) containing a translational mtrCp-lacZ fusion with the proAB locus were used to assess the ability of bile salts to induce mtrC expression; the construction of these strains has been described previously ([41]). The MIC of bile salts for each strain used in the β-galactosidase assay was determined using a 2-fold agar dilution method ([32]). Gonococci were grown overnight on GC agar (Difco Laboratories) supplemented with a bile salt (glycocholate, chenodeoxycholate, or taurodeoxycholate) at concentrations that were 4-fold below the MIC. After overnight growth at 37°C under 3.8% (vol/vol) CO2, the bacteria were scraped from the agar plate, resuspended in 1 ml phosphate-buffered saline (pH 7.4), and lysed by freeze-thawing three times, after which the cell debris was pelleted by centrifugation. The lysate was then used to determine β-galactosidase levels as described previously ([63]). All experiments were performed in triplicate with at least three biological replicates conducted on different days.

T7 sequence (P39897 whole entry R176E): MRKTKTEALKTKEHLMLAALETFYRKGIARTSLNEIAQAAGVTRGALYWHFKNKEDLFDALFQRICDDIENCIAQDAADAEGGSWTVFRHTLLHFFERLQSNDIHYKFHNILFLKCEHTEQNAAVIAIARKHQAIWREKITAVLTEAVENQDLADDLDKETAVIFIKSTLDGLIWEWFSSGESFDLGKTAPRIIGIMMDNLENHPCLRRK
T5 sequence (P39897 whole entry): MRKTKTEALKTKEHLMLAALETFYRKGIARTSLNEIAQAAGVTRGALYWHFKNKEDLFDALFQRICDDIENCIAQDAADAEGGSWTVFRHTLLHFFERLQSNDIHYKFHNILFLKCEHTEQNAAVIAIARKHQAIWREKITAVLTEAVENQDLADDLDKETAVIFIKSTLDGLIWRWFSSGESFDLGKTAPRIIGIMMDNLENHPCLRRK
T1 sequence (P39897 whole entry): as above
T9 sequence (P39897 whole entry W136L): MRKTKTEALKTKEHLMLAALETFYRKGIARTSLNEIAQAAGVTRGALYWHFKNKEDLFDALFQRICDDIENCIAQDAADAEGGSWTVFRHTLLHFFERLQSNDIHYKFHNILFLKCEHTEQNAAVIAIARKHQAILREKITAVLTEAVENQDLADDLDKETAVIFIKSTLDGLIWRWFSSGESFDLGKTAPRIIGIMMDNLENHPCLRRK
T3 sequence (P39897 whole entry W136L): as above
T2 sequence (P39897 whole entry R176E): as the sequence (P39897 whole entry R176E) above
T8 sequence (P39897 whole entry): as the sequence (P39897 whole entry) above
T6 sequence (P39897 whole entry, one chain of several): as the sequence (P39897 whole entry) above
T4 sequence (P39897 whole entry R176A): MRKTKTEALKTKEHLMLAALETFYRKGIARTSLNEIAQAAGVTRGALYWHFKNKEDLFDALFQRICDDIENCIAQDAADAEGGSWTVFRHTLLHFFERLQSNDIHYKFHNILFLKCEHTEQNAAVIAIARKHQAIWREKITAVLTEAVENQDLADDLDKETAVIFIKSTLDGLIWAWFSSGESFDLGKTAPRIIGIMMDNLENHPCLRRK

C[C@H](CCC(=O)O)[C@H]1CC[C@H]2[C@@H]3[C@H](O)C[C@@H]4C[C@H](O)CC[C@]4(C)[C@H]3CC[C@]12C [Chenodeoxycholate, chenodeoxycholate]
Fold increase in Kd (MtrR-mtrCDE promoter; 1 mM bile salt): 8.3 | Fold increase in Kd (MtrR-mtrCDE promoter; 1 mM bile salt, listed as chenodeoxycholate): 8- to 28 | Fold increase in Kd (MtrR-mtrCDE promoter; 5 mM bile salt): No binding | Kd of MtrR-mtrCDE promoter binding in the presence of bile salt (MtrR-mtrCDE promoter; 5 mM bile salt, no bile salt 18 ± 3 nM): no DNA binding by MtrR was detected | Fold increase of mtrCp-lacZ activity [1]: 1.37 (0.2)^b | Concentration that induces (dissociates from mtrCDE operator DNA) MtrR(R176E) [2]: did not induce either MtrR(R176A) or MtrR(R176E) to the same degree as the wild-type protein | Kd of bile salt binding to MtrR(W136L) (MtrR(W136L)): No binding | Concentration that induces (dissociates from mtrCDE operator DNA) MtrR(R176A) [3]: did not induce either MtrR(R176A) or MtrR(R176E) to the same degree as the wild-type protein | ΔH, WT MtrR (MtrR): -17.27 ± 3.09 kJ/mol | ΔS, WT MtrR (MtrR): 10.85 ± 3.13 cal/mol/deg | Kd (MtrR; 25°C, 20 μM MtrR in cell, 250 μM ligand in syringe, read-out: Kd of bile salt binding to WT MtrR): 4.4 µM and ~5 µM | Stoichiometry N, WT MtrR (MtrR): 0.444 ± 0.097 | Stoichiometry N, WT MtrR (MtrR; listed as CDCA): ~ 0.5 | Stoichiometry N, WT MtrR (MtrR; listed as chenodeoxycholate): one molecule of bile salt per MtrR dimer | Concentration that disrupts the preformed MtrR-DNA complex (MtrR-DNA complex): 2 to 3 mM | Stoichiometry N, MtrR(R176E) (MtrR(R176E)): 0.521 ± 0.038 | ΔH, MtrR(R176E) (MtrR(R176E)): -54.304 ± 34.43 kJ/mol | ΔS, MtrR(R176E) (MtrR(R176E)): -23.00 ± 31.48 cal/mol/deg | Kd (MtrR(R176E); read-out: Kd of bile salt binding to MtrR(R176E)): 97 ± 64 µM | Binding, ligand competition: chenodeoxycholate titrated into MtrR-TDCA (WT MtrR): minimal binding | Concentration that induces (dissociates from mtrCDE operator DNA) MtrR(W136L) [4]: 5 to 10 mM | MtrR-dependent derepression of the mtrC promoter ([5]; FA19 compared with ΔmtrR strain JF1, sublethal bile salt): clearly evident | Fold increase of mtrCp-lacZ activity ([5]; strain FA19, grown on GC agar with bile salt 4-fold below MIC versus normal agar, mM concentration in parentheses in the cell): 5.09 (0.2)
